The test system of this assay is L1210 leukemia ip in BDF1 mice, survival T/C. The experiment in a line: NCI In Vivo Anticancer Drug Screen. Data for tumor model L1210 Leukemia (intraperitoneal) in B6D2F1 (BDF1) mice. To be noted: endpoint: mean survival time, higher = longer survival. The method, boiled down:
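Mice bearing the transplanted tumor received compound or vehicle. Survival of the treated group was divided by that of the vehicle-treated control group to give the ratio.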

Setting [1] is: dose: 100.0 mg/kg/injection, schedule: Q04DX003 (ip), vehicle: saline with Tween-80.
The mark [2] stands for this setting: dose: 200.0 mg/kg/injection, schedule: Q04DX003 (ip), vehicle: saline with Tween-80.
The mark [3] stands for this setting: dose: 400.0 mg/kg/injection, schedule: Q04DX003 (ip), vehicle: saline with Tween-80.
Where [4] appears, read: dose: 100.0 mg/kg/injection, schedule: Q01DX001 (ip), vehicle: carboxymethylcellulose (CMC).
Where [5] appears, read: dose: 200.0 mg/kg/injection, schedule: Q01DX001 (ip), vehicle: carboxymethylcellulose (CMC).
Where [6] appears, read: dose: 400.0 mg/kg/injection, schedule: Q01DX001 (ip), vehicle: carboxymethylcellulose (CMC).
The mark [7] stands for this setting: dose: 100.0 mg/kg/injection, schedule: Q01DX001 (ip), vehicle: saline.
[8] abbreviates: dose: 200.0 mg/kg/injection, schedule: Q01DX001 (ip), vehicle: saline.
[9] abbreviates: dose: 400.0 mg/kg/injection, schedule: Q01DX001 (ip), vehicle: saline.
Where [10] appears, read: dose: 100.0 mg/kg/injection, schedule: Q01DX009 (ip), vehicle: Klucel (hydroxypropylcellulose) (HPC).
Where [11] appears, read: dose: 200.0 mg/kg/injection, schedule: Q01DX009 (ip), vehicle: Klucel (hydroxypropylcellulose) (HPC).
The mark [12] stands for this setting: dose: 200.0 mg/kg/injection, schedule: Q04DX003 (ip), vehicle: Klucel (hydroxypropylcellulose) (HPC).
Where [13] appears, read: dose: 400.0 mg/kg/injection, schedule: Q04DX003 (ip), vehicle: Klucel (hydroxypropylcellulose) (HPC).

Values joined by “and” are separate entries in the source; they are usually repeats but may differ in a detail not shown here. Identical values can stand only once. Toxic doses and inconclusive results are not listed.

On to `CN1c2ccc(Br)c[c]2[Sn]([c]2ccccc2)([c]2ccccc2)[c]2cc(Br)ccc21`, for which the T/C is 91 % of control (dose: 100.0 mg/kg/injection, schedule: Q01DX001 (ip), vehicle: other); 96 % of control (dose: 200.0 mg/kg/injection, schedule: Q01DX001 (ip), vehicle: other); 96 % of control (dose: 400.0 mg/kg/injection, schedule: Q01DX001 (ip), vehicle: other).
`COc1cc(C(=O)N/N=C/c2ccc(N(C)C)cc2)cc(OC)c1OC`: the T/C reads like this: under setting [1], 102 % of control; under setting [2], 102 % of control; under setting [3], 89 % of control.
Turning to `ClC1=NC(c2ccc(Cl)cc2)N2C1C2c1ccccc1` (centres undefined), the T/C is 92 % of control under setting [1], 92 % of control under setting [2] and 94 % of control under setting [3].
Consider `O=C1CC(Cc2n[nH]c3c2CCC3)CC(=O)N1`, for which the T/C was 103 % of control under setting [4]; 97 % of control (dose: 100.0 mg/kg/injection, schedule: Q04DX003 (ip), vehicle: carboxymethylcellulose (CMC)); 97 % of control under setting [5]; 94 % of control (dose: 200.0 mg/kg/injection, schedule: Q04DX003 (ip), vehicle: carboxymethylcellulose (CMC)); 105 % of control under setting [6]; 101 % of control (dose: 400.0 mg/kg/injection, schedule: Q04DX003 (ip), vehicle: carboxymethylcellulose (CMC)).
Regarding `COc1ccc2c(c1OC)C(=O)O[C@@H]2[C@H]1c2c(cc3c(c2OC)OCO3)CCN1C`, the T/C (dose: 31.3 mg/kg/injection, schedule: Q01DX009 (ip), vehicle: saline) was 95 % of control and 100 % of control (2×); the T/C (dose: 50.0 mg/kg/injection, schedule: Q01DX001 (ip), vehicle: saline) is 96 % of control; the T/C (dose: 62.5 mg/kg/injection, schedule: Q01DX009 (ip), vehicle: saline) was 94 % of control and 100 % of control (2×); the T/C under setting [7] is 102 % of control; the T/C (dose: 125.0 mg/kg/injection, schedule: Q01DX009 (ip), vehicle: saline) is 96 % of control and 97 % of control and 91 % of control; the T/C under setting [8] is 107 % of control. In addition, the T/C was 102 % of control and 104 % of control and 91 % of control (dose: 250.0 mg/kg/injection, schedule: Q01DX009 (ip), vehicle: saline); 111 % of control under setting [9].
For the compound `CN(C)C(=O)Sc1ccc(Cl)cc1S(=O)(=O)F`, the T/C under setting [10] was 97 % of control; the T/C under setting [11] was 100 % of control; the T/C (dose: 400.0 mg/kg/injection, schedule: Q01DX009 (ip), vehicle: Klucel (hydroxypropylcellulose) (HPC)) was 89 % of control.
For `O=C(O)/C(Cc1cnc2ccccc2n1)=N\O`, the T/C is, setting by setting: (dose: 100.0 mg/kg/injection, schedule: Q01DX009 (ip), vehicle: saline with Tween-80) 104 % of control; under setting [1], 105 % of control; (dose: 200.0 mg/kg/injection, schedule: Q01DX009 (ip), vehicle: saline with Tween-80) 104 % of control; under setting [2], 101 % of control; (dose: 400.0 mg/kg/injection, schedule: Q01DX009 (ip), vehicle: saline with Tween-80) 93 % of control; under setting [3], 100 % of control.
For the compound `Cc1ccc(-n2cnnn2)cc1`, the T/C was 103 % of control under setting [7], 104 % of control under setting [8] and 103 % of control under setting [9].
In the case of `Cc1ccc(C(=O)C(C)CN2CCCCC2)cc1` (centres undefined), the T/C by setting is: under setting [7], 97 % of control; under setting [8], 94 % of control.
For `OC(Cc1ccc(-c2ccccc2)cc1)c1ccccc1` (centres undefined), the T/C (dose: 50.0 mg/kg/injection, schedule: Q01DX001 (ip), vehicle: saline with Tween-80) was 93 % of control; the T/C (dose: 100.0 mg/kg/injection, schedule: Q01DX001 (ip), vehicle: saline with Tween-80) is 91 % of control; the T/C (dose: 200.0 mg/kg/injection, schedule: Q01DX001 (ip), vehicle: saline with Tween-80) was 91 % of control.
`FC(F)(F)c1cccc(NC(=S)SCc2ccc(Cl)cc2)c1`: the T/C (dose: 15.0 mg/kg/injection, schedule: Q04DX003 (ip), vehicle: saline) is 102 % of control; the T/C (dose: 30.0 mg/kg/injection, schedule: Q04DX003 (ip), vehicle: saline) is 102 % of control; the T/C (dose: 60.0 mg/kg/injection, schedule: Q04DX003 (ip), vehicle: saline) was 102 % of control; the T/C (dose: 100.0 mg/kg/injection, schedule: Q04DX002 (ip), vehicle: Klucel (hydroxypropylcellulose) (HPC)) was 87 % of control; the T/C (dose: 200.0 mg/kg/injection, schedule: Q04DX002 (ip), vehicle: Klucel (hydroxypropylcellulose) (HPC)) is 112 % of control.
Turning to `CC1(O)CCCCCC1`, the T/C (dose: 50.0 mg/kg/injection, schedule: Q01DX001 (ip), vehicle: carboxymethylcellulose (CMC)) is 107 % of control; the T/C under setting [4] was 100 % of control; the T/C under setting [5] was 94 % of control; the T/C under setting [6] was 89 % of control.
Take `OCC1OC(n2cnc3c2ncn2ccnc32)C(O)C1O` (centres undefined): the T/C by setting is: (dose: 6.25 mg/kg/injection, schedule: Q03HX024 (ip), vehicle: saline) 98 % of control; (dose: 12.5 mg/kg/injection, schedule: Q03HX024 (ip), vehicle: saline) 93 % of control; (dose: 12.5 mg/kg/injection, schedule: Q04DX002 (ip), vehicle: saline) 93 % of control; (dose: 25.0 mg/kg/injection, schedule: Q03HX024 (ip), vehicle: saline) 95 % of control; (dose: 25.0 mg/kg/injection, schedule: Q04DX002 (ip), vehicle: saline) 97 % of control; (dose: 50.0 mg/kg/injection, schedule: Q03HX024 (ip), vehicle: saline) 92 % of control. In addition, the T/C is, setting by setting: (dose: 50.0 mg/kg/injection, schedule: Q04DX002 (ip), vehicle: saline) 179 % of control; (dose: 100.0 mg/kg/injection, schedule: Q01DX005 (ip), vehicle: saline) 101 % of control; (dose: 100.0 mg/kg/injection, schedule: Q01DX009 (ip), vehicle: saline) 107 % of control; (dose: 100.0 mg/kg/injection, schedule: Q03HX024 (ip), vehicle: saline) 87 % of control; (dose: 200.0 mg/kg/injection, schedule: Q01DX005 (ip), vehicle: saline) 107 % of control; (dose: 200.0 mg/kg/injection, schedule: Q01DX009 (ip), vehicle: saline) 89 % of control. Further, the T/C runs as follows: (dose: 200.0 mg/kg/injection, schedule: Q03HX024 (ip), vehicle: saline) 88 % of control; (dose: 400.0 mg/kg/injection, schedule: Q01DX009 (ip), vehicle: saline) 104 % of control.
Turning to `CNc1ccc2cc(Br)ccc2c1`, the T/C is, setting by setting: (dose: 100.0 mg/kg/injection, schedule: Q01DX005 (ip), vehicle: Klucel (hydroxypropylcellulose) (HPC)) 107 % of control; (dose: 200.0 mg/kg/injection, schedule: Q01DX005 (ip), vehicle: Klucel (hydroxypropylcellulose) (HPC)) 107 % of control; under setting [12], 95 % of control; (dose: 400.0 mg/kg/injection, schedule: Q01DX005 (ip), vehicle: Klucel (hydroxypropylcellulose) (HPC)) 95 % of control; under setting [13], 101 % of control.
As to `CC(C)=CCN1CCN=C(c2ccccc2)c2cc(Cl)ccc21`, the T/C is 100 % of control (dose: 50.0 mg/kg/injection, schedule: Q01DX009 (ip), vehicle: Klucel (hydroxypropylcellulose) (HPC)); 105 % of control under setting [10]; 102 % of control (dose: 100.0 mg/kg/injection, schedule: Q04DX003 (ip), vehicle: Klucel (hydroxypropylcellulose) (HPC)); 94 % of control under setting [11]; 98 % of control under setting [12]; 93 % of control under setting [13].
Turning to `C[C@]12CCC(=O)C[C@H]1CC[C@@H]1[C@@H]2CC[C@@]2(C)[C@H]1CC[C@]2(C)O`, the T/C is, setting by setting: (dose: 50.0 mg/kg/injection, schedule: Q01DX Z (sc), vehicle: steriod suspending solution) 98 % of control; (dose: 100.0 mg/kg/injection, schedule: Q01DX Z (sc), vehicle: steriod suspending solution) 98 % of control; (dose: 200.0 mg/kg/injection, schedule: Q01DX Z (sc), vehicle: steriod suspending solution) 101 % of control; (dose: 400.0 mg/kg/injection, schedule: Q01DX Z (sc), vehicle: steriod suspending solution) 98 % of control.
For `CCC(CC)(COC(=O)c1ccc(N)cc1)C1CCCCC1`, the T/C (dose: 150.0 mg/kg/injection, schedule: Q01DX001 (ip), vehicle: carboxymethylcellulose (CMC)) is 94 % of control.

These data come from PubChem BioAssay AID248 (DTP/NCI, 2004).
